How the values were obtained:
HIV-1NL4-3 [1] = assay: HIV-1 infectivity assay in TZM-bl cells (F-Luc under HIV-1 LTR); type: cell-based; details: for inhibition at 3 µM / IC50: Human immunodeficiency virus 1, NL43, TZM-bl; for inhibition at 3 µM: 48 h, read-out: Inhibition of HIV-1 Infectivity (%), TZM-bl cells, 3 μM, HIV-1 NL4-3 at MOI of 1, 48 h; for IC50: read-out: IC50 (inhibition of HIV-1 infection); for Inhibition ratio of HIV-1 infectivity, dose response / Inhibition of HIV-1 Infectivity (%): TZM-bl cells; for Inhibition ratio of HIV-1 infectivity, dose response: HIV-1NL4-3, up to a concentration of 25 μM; for Inhibition of HIV-1 Infectivity (%): 3 μM, HIV-1 NL4-3 at MOI of 1, 48 h
From the text: TZM-bl cells (also referred as JC53BL-13) expressing human CD4, CXCR4, and CCR5 in order to facilitate HIV-1 infection, which contain the firefly luciferase (F-Luc) gene under the control of HIV-1 long terminal repeat (LTR) promoter was used to determine inhibitory effect of the compounds on HIV-1 infection, as described previously with minor modifications. […] Without replacement of a culture medium, the cells were then infected with the HIV-1NL4-3 strain at a multiplicity of infection (MOI) of 1 to determine the exact inhibitory effect of compounds on a single round infection. After 48 h, the inhibitory effect of the compounds was determined using a Bright Glo luciferase assay kit (Promega). The infectivity data are presented as a percentage relative to the DMSO control (vehicle). The inhibitory effects of the compounds on viral replication were determined with some minor modifications, as described previously. […] PBMCs were pre-activated with phytohemagglutinin M (PHA-M) for 3 days. The pre-activated 4 × 10^5 of PBMCs were washed with fresh media to remove excess PHA-M and then infected with HIV-1NL4-3 or HIV-1AD8 as that of A3.01 infection.

[2] = Cell viability (resazurin-based PrestoBlue) in parallel with infectivity assay; details: human, TZM-bl cells; for viability at 48 h, 3 µM: with infection of HIV-1 NL4-3 at MOI of 1; for CC50 at 48 h: serial dilution starting from 100 μM, read-out: CC50 (concentration that reduces cell viability by 50%)
HIV-1NL4-3 [3] = assay: HIV-1 replication assay (p24 […]) in A3.01 T cell line; type: cell-based; details: A3.01 cells, HIV-1NL4-3 MOI 0.1, 1.5 μM, 72 h
Description: (§1) TZM-bl cells (also referred as JC53BL-13) expressing human CD4, CXCR4, and CCR5 in order to facilitate HIV-1 infection, which contain the firefly luciferase (F-Luc) gene under the control of HIV-1 long terminal repeat (LTR) promoter was used to determine inhibitory effect of the compounds on HIV-1 infection, as described previously with minor modifications. In brief, 1 × 10^4 cells were cultured in 96-well plates for 24 h and then treated with compounds at a final concentration of 3 μM (Figure 1A) or with 1:2 serially diluted compounds at concentrations ranging from 0 to 25 μM (dose-response assay; Figure 1B and Table 2). Without replacement of a culture medium, the cells were then infected with the HIV-1NL4-3 strain at a multiplicity of infection (MOI) of 1 to determine the exact inhibitory effect of compounds on a single round infection. After 48 h, the inhibitory effect of the compounds was determined using a Bright Glo luciferase assay kit (Promega). The infectivity data are presented as a percentage relative to the DMSO control (vehicle). The inhibitory effects of the compounds on viral replication were determined with some minor modifications, as described previously. In brief, 5 × 10^4 cells/ well of A3.01 cells were infected with HIV-1NL4-3 at an MOI of 0.1 with the spinoculation at 300 g for 2 h at 25 °C. PBMCs were pre-activated with phytohemagglutinin M (PHA-M) for 3 days. The pre-activated 4 × 10^5 of PBMCs were washed with fresh media to remove excess PHA-M and then infected with HIV-1NL4-3 or HIV-1AD8 as that of A3.01 infection. After infection, the infectious media were replaced with fresh media (supplemented with international 10 units (IU)/mL of IL-2 for PBMCs containing 1.5 μM of compounds. At 72 h after infection, the inhibitory effect of the compounds on viral replication was determined by measuring the amount of p24, an HIV capsid protein, using an HIV-1 p24 […]™ kit (PerkinElmer, Waltham, MA, USA). Cell viability was determined by using the resazurin-based PrestoBlue™ cell viability reagent (Thermo Fisher Scientific, Waltham, MA, USA) according to the manufacturer’s protocols.

HIV-1NL4-3 [4] = assay: HIV-1 replication assay (p24 […]) in PBMCs, CXCR4 tropic strain; type: cell-based; details: HIV-1NL4-3 MOI 0.1, 1.5 μM, 72 h
Description: as §1

[5] = system: Tat-mediated HIV-1 transcription; assay: microbe, parasite or virus in culture; type: cell-based; details: for Inhibition of Tat-induced HIV-1 transcription, concentration response / Tat-induced transcriptional activity (F-Luc): bl-DTR cells; for Inhibition of Tat-induced HIV-1 transcription, concentration response: 0 to 25 μM; for Tat-induced transcriptional activity (F-Luc): 3 μM, doxycycline 50 ng/mL, 24 h
Description: (§2) bl-DTR (TZM-bl-derived dual Tat reporter) cells derived from TZM-bl cells by insertion of two doxycycline-inducible lentiviral vector-expressing flag-tagged tat and Renilla-luciferase (R-Luc) genes were used to determine simultaneously both activities of Tat-mediated HIV-1 transcription and general cellular transcription, as described previously. Determination of the inhibitory effect of the compounds on Tat-mediated transcription was performed as described previously. In brief, 1 × 10^4 of bl-DTR cells cultured in 96-well plates were treated with compounds at a final concentration of 3 μM (Figure 3C) or with 1:2 serially diluted compounds at concentrations ranging from 0 to 25 μM (Figure 4 and Table 3). Subsequently, doxycycline was treated at a final concentration of 50 ng/mL to induce Tat-mediated F-Luc and R-Luc. At 24 h after treatment, the activities of F-Luc and R-Luc were determined by using a Dual-Glo™ luciferase assay system (Promega, Madison, WI, USA) according to the manufacturer’s protocols. The data are presented as a percentage relative to the DMSO control (vehicle) in the presence of doxycycline, and the experiment was performed in triplicate.

HIV-1 integrase = target: T1, HIV-1 integrase (Human immunodeficiency virus type 1 group M subtype B, UniProt P04585); assay: HIV-1 integrase assay kit; type: biochemical; details: 10 μM
T1 construct: purchased XpressBio, Frederick, MD, USA
Description: The integrase activity was determined using an HIV-1 integrase assay kit (XpressBio, Frederick, MD, USA), according to the manufacturer’s protocols. In brief, a 96-well plate coated with donor substrate (DS) DNA was blocked with blocking buffer for 30 min at 37 °C. One hundred μL of HIV-1 integrase diluted with 1:300 onto reaction buffer was added to the plate, and the plate was then incubated for 30 min at 37 °C. Subsequently, 50 μL of compounds were added to the plate at final concentrations of 10 and 20 μM. At 5 min after addition of compounds, 50 μL of target substrate DNA diluted at 1:100 was added to the plate and incubated for 30 min at 37 °C. The plate was washed and then incubated with 100 μL of horse radish peroxidase antibody solution for 30 min at 37 °C. Integrase activity was assessed by measuring the peroxidase activity reacted with 3,3′,5,5′-tetramethylbenzidine substrate at optical density […]. The experiment was performed in triplicate.

[6] = system: general cellular transcription; assay: R-Luc activity in bl-DTR cells (general cellular transcription); type: cell-based; details: high dosages (12.5 μM and 25 μM)
Description: as §2

TZM-bl cells = assay: Cell viability (resazurin-based PrestoBlue) in parallel with infectivity assay; details: 3 μM, with infection of HIV-1 NL4-3 at MOI of 1

Compound: Cc1cn([C@H]2C[C@H](N=[N+]=[N-])[C@@H](CO)O2)c(=O)[nH]c1=O [AZT, azidothymidine, reference compound]
- inhibition at 3 µM (HIV-1NL4-3 [1]): 99.65 ± 0.048%
- IC50 (HIV-1NL4-3 [1]): 0.079 ± 0.0237 µM
- viability at 48 h, 3 µM [2]: 94.8 ± 7.21%
- CC50 at 48 h [2]: > 100 µM

Compound: CCOC(=O)C1(C/C=C/Cl)Nc2cccc(C)c2C1=O (stereo not drawn) [Compound 6a, Ethyl (E)-2-(3-chloroallyl)-4-methyl-3-oxindole-2-carboxylate]
- inhibition at 3 µM (HIV-1NL4-3 [1]): ~20%
- IC50 (HIV-1NL4-3 [1]): 13.7 ± 2.55 µM
- viability at 48 h, 3 µM [2]: 106 ± 9.33%
- CC50 at 48 h [2]: 87.4 ± 12.7 µM
- Inhibitory effect on viral replication (p24) (HIV-1NL4-3 [3]): no inhibition
- Inhibitory effect on viral replication (p24) (HIV-1NL4-3 [4]): no inhibition
- IC50 ([5]; Human immunodeficiency virus 1, 24 h, read-out: IC50 (inhibition of Tat-mediated HIV-1 transcription)): 9.53 ± 0.48 µM
- melting point: > 300 °C

Compound: COC(=O)C1(C/C=C/Cl)Nc2ccc(OC)cc2C1=O (stereo not drawn) [Compound 6b, Methyl (E)-2-(3-chloroallyl)-5-methoxy-3-oxindole-2-carboxylate]
- inhibition at 3 µM (HIV-1NL4-3 [1]): 0.55 ± 4.34%
- viability at 48 h, 3 µM [2]: 99.6 ± 14.2%
- Inhibitory effect on viral replication (p24) (HIV-1NL4-3 [3]): no inhibition
- Inhibitory effect on viral replication (p24) (HIV-1NL4-3 [4]): no inhibition
- melting point: > 300 °C

Compound: CCCC1(C(=O)OC)Nc2ccc(OC)cc2C1=O (stereo not drawn) [Compound 6c, Methyl 5-methoxy-3-oxo-2-propylindoline-2-carboxylate]
- inhibition at 3 µM (HIV-1NL4-3 [1]): 16.2 ± 5.52%
- viability at 48 h, 3 µM [2]: 92.7 ± 5.77%
- melting point: 117 to 118 °C

Compound: C=CCC1(C(=O)OC)Nc2cc(C)cc(C)c2C1=O (stereo not drawn) [Compound 6h, Methyl 2-allyl-4,6-dimethyl-3-oxindole-2-carboxylate]
- inhibition at 3 µM (HIV-1NL4-3 [1]): 23.6 ± 4.46%
- Inhibition ratio of HIV-1 infectivity, dose response (HIV-1NL4-3 [1]): did not show further increased inhibitory effect
- viability at 48 h, 3 µM [2]: 107 ± 4.73%
- Inhibitory effect on viral replication (p24) (HIV-1NL4-3 [3]): no inhibition
- Inhibitory effect on viral replication (p24) (HIV-1NL4-3 [4]): no inhibition
- melting point: 147 °C

Compound: CCCC1(C(=O)OC)Nc2cc(C)cc(C)c2C1=O (stereo not drawn) [Compound 6i, Methyl 4,6-dimethyl-3-oxo-2-propylindoline-2-carboxylate]
- inhibition at 3 µM (HIV-1NL4-3 [1]): 9.15 ± 0.96%
- viability at 48 h, 3 µM [2]: 99.4 ± 8.83%
- Inhibitory effect on viral replication (p24) (HIV-1NL4-3 [3]): no inhibition
- Inhibitory effect on viral replication (p24) (HIV-1NL4-3 [4]): no inhibition
- melting point: 132 to 133 °C

Compound: CCOC(=O)c1[nH]c2cccc(C)c2c1OC/C=C/Cl [Compound 7a, ethyl (e)-3-((3-chloroallyl)oxy)-4-methyl-1h-indole-2-carboxylate]
- inhibition at 3 µM (HIV-1NL4-3 [1]): ~20%
- Inhibition ratio of HIV-1 infectivity, dose response (HIV-1NL4-3 [1]): ~50%
- viability at 48 h, 3 µM [2]: 117 ± 2.7%
- Inhibition of Tat-induced HIV-1 transcription, concentration response [5]: do not affect
- melting point: 226 °C

Compound: COC(=O)c1[nH]c2ccc(OC)cc2c1OC/C=C/Cl [Compound 7b, methyl (e)-3-((3-chloroallyl)oxy)-5-methoxy-1h-indole-2-carboxylate]
- inhibition at 3 µM (HIV-1NL4-3 [1]): ~20%
- Inhibition ratio of HIV-1 infectivity, dose response (HIV-1NL4-3 [1]): ~50%
- viability at 48 h, 3 µM [2]: 110 ± 4.96%
- Inhibition of Tat-induced HIV-1 transcription, concentration response [5]: do not affect
- melting point: > 300 °C

Compound: C[C@@H]1CCO[C@H]2Cn3cc(C(=O)NCc4ccc(F)cc4F)c(=O)c(O)c3C(=O)N12 [DOL, dolutegravir]
- Inhibition of integrase activity (HIV-1 integrase): inhibited

Compound: Cc1nnc(C(=O)NC(C)(C)c2nc(C(=O)NCc3ccc(F)cc3)c(O)c(=O)n2C)o1 [RAL, raltegravir]
- Inhibition of integrase activity (HIV-1 integrase): inhibited

Compound: CC[C@H](CO)Nc1nc(NCc2ccccc2)c2ncn(C(C)C)c2n1 [seliciclib, Seliciclib, reference compound]
- Tat-induced transcriptional activity (F-Luc) [5]: specific inhibition
- R-Luc activity [6]: decrease in R-Luc activity

Compound: CC(C)[C@]12O[C@H]1[C@@H]1O[C@]13[C@]1(O[C@H]1C[C@H]1C4=C(CC[C@@]13C)C(=O)OC4)[C@@H]2O [triptolide, reference compound]
- Tat-induced transcriptional activity (F-Luc) [5]: specific inhibition

Compound: Methyl (E)-2-(3-chloroallyl)-3-oxindole-2-carboxylate [Compound 6e]
- Inhibition of HIV-1 Infectivity (%) (HIV-1NL4-3 [1]): 11.49 ± 5.66%
- Cell Viability (%) (TZM-bl cells): 95.66 ± 7.32%

Compound: Methyl (E)-2-(3-chloroallyl)-5-methyl-3-oxindole-2-carboxylate [Compound 6d]
- Inhibition of HIV-1 Infectivity (%) (HIV-1NL4-3 [1]): 0.00 ± 10.66%
- Cell Viability (%) (TZM-bl cells): 96.96 ± 9.15%
- Inhibition of Tat-induced HIV-1 transcription, concentration response [5]: did not inhibit
